From US20250144067A1, “PERSONALIZED STARVATION THERAPY FOR CANCER” (Faeth Therapeutics, Inc., priority 2021, published 2025)
Counter-ions that a name gives are not always drawn. Like-named read-outs stand apart in the source and are kept apart here.

Columns and labels:
[1] = test system: NCI-H292 lung cancer cells; assay: FDA drug screening, complete media vs cholesterol-free media without statin (TABLE 1); assay type: cell-based, human
[2] = test system: NCI-H292 lung cancer cells; assay: FDA drug screening, complete media vs cholesterol-free media with simvastatin (TABLE 2); assay type: cell-based, human
[3] = Complete minus Cholesterol-free, >0 enhanced anti-cancer activity, about 0 neutral, <0 antagonist
[4] = NCI-H292 cells, cholesterol-free media without statin, FDA drug library screen
[5] = NCI-H292 cells, complete media, FDA drug library screen
[6] = NCI-H292 cells, cholesterol-free media with simvastatin 0.04 μM, cell growth value in FDA drug screen
[7] = NCI-H292 cells, complete media, cell growth value in FDA drug screen
[8] = complete media minus cholesterol-free media + simvastatin, >0 enhanced anti-cancer activity, about 0 neutral, <0 antagonist
[9] = NCI-H292 cells, cholesterol-free media without statin
[10] = NCI-H292 cells, drug in cholesterol-free media with simvastatin 0.04 μM
[11] = NCI-H292 cells, drug in complete media
[12] = complete media vs cholesterol-free media + simvastatin (0.04 μM), >0 enhanced anti-cancer activity, about 0 neutral, <0 antagonist
[13] = NCI-H292 cells, FDA drug library screen, cholesterol-free media with simvastatin 0.04 μM
[14] = NCI-H292 cells, FDA drug library screen, complete media
[15] = complete vs cholesterol-free media, >0 enhanced anti-cancer activity, about 0 neutral, <0 antagonist
[16] = NCI-H292 cells, cholesterol-free media with simvastatin 0.04 μM, FDA drug library screen (TABLE 2)
[17] = NCI-H292 cells, complete media, FDA drug library screen (TABLE 2)
[18] = complete media minus cholesterol-free media + simvastatin (0.04 μM), >0 enhanced anti-cancer activity, about 0 neutral, <0 antagonist
[19] = Complete minus Cholesterol-free, greater than 0 enhanced anti-cancer activity, about 0 neutral, below 0 antagonists
[20] = NCI-H292 cells in cholesterol-free media without statin
[21] = NCI-H292 cells in complete media
[22] = NCI-H292 cells, FDA library drug in cholesterol-free media with simvastatin 0.04 μM
[23] = NCI-H292 cells, FDA library drug in complete media
[24] = NCI-H292 cells, FDA drug library screen, cholesterol-free media without statin
[25] = complete vs cholesterol-free media, greater than 0 enhanced anti-cancer activity, about 0 neutral, below 0 antagonists
[26] = Complete minus Cholesterol-free, […]

CC(=O)O[C@@]12CO[C@@H]1C[C@H](O)[C@@]1(C)C(=O)[C@H](O)C3=C(C)[C@@H](OC(=O)[C@H](O)[C@@H](NC(=O)OC(C)(C)C)c4ccccc4)C[C@@](O)([C@@H](OC(=O)c4ccccc4)[C@H]21)C3(C)C [Docetaxel]
Difference [1, 3]: 0.04 | Cholesterol-free [1, 4]: 0.1661 | Complete [1, 5]: 0.2055 | Cholesterol-free media + simvastatin (0.04 μM) [2, 6]: 0.2547 | Complete Media [2, 7]: 0.2778 | Difference [2, 8]: 0.02

Nc1nc(N)nc(-c2cc(Cl)ccc2Cl)n1 [Irsogladine]
Difference [1, 3]: −0.28 | Cholesterol-free [1, 9]: 1.27 | Complete ([1]; NCI-H292 cells, complete media): 0.9941 | Cholesterol-free media + simvastatin (0.04 μM) [2, 10]: 1.185 | Complete Media [2, 11]: 0.995 | Difference [2, 12]: −0.19

CN1CCC(OC(c2ccccc2)c2ccccc2)CC1 [Diphenylpyraline (hydrochloride)]
Difference [1, 3]: −0.22 | Cholesterol-free [1, 9]: 0.9623 | Complete ([1]; NCI-H292 cells, complete media): 0.7446 | Cholesterol-free media + simvastatin (0.04 μM) [2, 13]: 0.641 | Complete Media [2, 14]: 1.367 | Difference [2, 8]: 0.73

CN1CCN(CC(=O)N2c3ccccc3C(=O)Nc3cccnc32)CC1 [Pirenzepine (dihydrochloride)]
Cholesterol-free [1, 4]: 1.465 | Complete [1, 5]: 1.606 | Difference [1, 15]: 0.14 | Cholesterol-free media + simvastatin (0.04 μM) [2, 16]: 1.293 | Complete Media [2, 17]: 1.265 | Difference [2, 18]: −0.03

CCOc1cc([C@@H](CS(C)(=O)=O)N2C(=O)c3cccc(NC(C)=O)c3C2=O)ccc1OC [Apremilast]
Cholesterol-free [1, 4]: 1.127 | Complete [1, 5]: 1.856 | Difference [1, 15]: 0.73 | Cholesterol-free media + simvastatin (0.04 μM) [2, 13]: 1.396 | Complete Media [2, 14]: 1.812 | Difference [2, 8]: 0.42

CNC[C@H](O)[C@@H](O)[C@H](O)[C@H](O)CO.O=C(O)c1ccc2nc(-c3cc(Cl)cc(Cl)c3)oc2c1 [Tafamidis meglumine]
Difference [1, 3]: −0.03 | Cholesterol-free [1, 4]: 0.8398 | Complete [1, 5]: 0.8088 | Cholesterol-free media + simvastatin (0.04 μM) [2, 13]: 0.9551 | Difference [2, 8]: 0.20

CO/N=C(\C(=O)N[C@@H]1C(=O)N2C(C(=O)[O-])=C(C[N+]3(C)CCCC3)CS[C@H]12)c1csc(N)n1 [Cefepime (Dihydrochloride Monohydrate)]
Difference [1, 19]: −0.52 | Cholesterol-free [1, 20]: 1.209 | Complete [1, 21]: 0.6874 | Cholesterol-free media + simvastatin (0.04 μM) [2, 13]: 1.15 | Complete Media [2, 14]: 1.537 | Difference [2, 8]: 0.39

NCCS(=O)(=O)O [Taurine]
Cholesterol-free [1, 4]: 1.192 | Complete [1, 5]: 1.309 | Difference [1, 15]: 0.12 | Cholesterol-free media + simvastatin (0.04 μM) [2, 22]: 1.971 | Complete Media [2, 23]: 1.363 | Difference [2, 12]: −0.61

O=[N+]([O-])c1cn2c(n1)OC[C@@H](OCc1ccc(OC(F)(F)F)cc1)C2 [Pretomanid]
Difference [1, 3]: −0.21 | Cholesterol-free [1, 9]: 1.474 | Complete ([1]; NCI-H292 cells, complete media): 1.26 | Cholesterol-free media + simvastatin (0.04 μM) [2, 22]: 1.251 | Complete Media [2, 23]: 0.9046 | Difference [2, 12]: −0.35

CSCC[C@H](N)C(=O)O [L-Methionine]
Difference ([1]; Complete minus Cholesterol-free, greater than 0 enhanced anti-cancer activity, about 0 neutral, below 0 antagonist): −0.12 | Cholesterol-free [1, 24]: 0.9015 | Complete [1, 14]: 0.7822 | Cholesterol-free media + simvastatin (0.04 μM) [2, 6]: 0.8406 | Complete Media [2, 7]: 0.8869 | Difference [2, 8]: 0.05

Cc1onc(-c2ccccc2Cl)c1C(=O)N[C@@H]1C(=O)N2[C@@H]1SC(C)(C)[C@@H]2C(=O)O [Cloxacillin (sodium monohydrate)]
Difference [1, 3]: −0.19 | Cholesterol-free [1, 9]: 1.114 | Complete ([1]; NCI-H292 cells, complete media): 0.9266 | Cholesterol-free media + simvastatin (0.04 μM) [2, 6]: 1.045 | Complete Media [2, 7]: 1.18 | Difference [2, 8]: 0.13

CC(=O)CCCCn1c(=O)c2c(ncn2C)n(C)c1=O [Pentoxifylline]
Difference [1, 3]: −0.26 | Cholesterol-free [1, 9]: 1.143 | Complete ([1]; NCI-H292 cells, complete media): 0.8845 | Cholesterol-free media + simvastatin (0.04 μM) [2, 16]: 0.9442 | Complete Media [2, 17]: 0.9268 | Difference [2, 18]: −0.02

Cc1cccc(N(C)C(=S)Oc2ccc3ccccc3c2)c1 [Tolnaftate]
Difference [1, 19]: −0.53 | Cholesterol-free [1, 20]: 1.723 | Complete [1, 21]: 1.191 | Cholesterol-free media + simvastatin (0.04 μM) [2, 10]: 1.419 | Complete Media [2, 11]: 1.24 | Difference [2, 12]: −0.18

Nc1ccc(S(N)(=O)=O)cc1 [Sulfanilamide]
Cholesterol-free [1, 9]: 1.317 | Complete ([1]; NCI-H292 cells, complete media): 1.005 | Difference [1, 25]: −0.31 | Cholesterol-free media + simvastatin (0.04 μM) [2, 22]: 1.221 | Complete Media [2, 23]: 0.9133 | Difference [2, 12]: −0.31

Cc1cc(=O)n(-c2ccccc2)n1C [Antipyrine]
Difference [1, 26]: −0.24 | Cholesterol-free [1, 9]: 1.066 | Complete ([1]; NCI-H292 cells, complete media): 0.8256 | Cholesterol-free media + simvastatin (0.04 μM) [2, 13]: 0.9785 | Complete Media [2, 14]: 0.8535 | Difference ([2]; complete media vs cholesterol-free media + simvastatin (0.04 μM), […]): −0.13

O=C[C@H](O)[C@@H](O)[C@H](O)CO (racemic) [DL-Xylose]
Difference [1, 19]: −0.70 | Cholesterol-free [1, 20]: 1.5 | Complete [1, 21]: 0.7993 | Cholesterol-free media + simvastatin (0.04 μM) [2, 13]: 0.8322 | Complete Media [2, 14]: 1.203 | Difference [2, 8]: 0.37

CC(C)(S)[C@@H](N)C(=O)O [Penicillamine]
Difference [1, 19]: −0.55 | Cholesterol-free [1, 20]: 1.556 | Complete [1, 21]: 1.005 | Cholesterol-free media + simvastatin (0.04 μM) [2, 10]: 1.252 | Complete Media [2, 11]: 1.083 | Difference [2, 12]: −0.17

N[C@H](Cc1ccc(O)cc1)C(=O)O [D-Tyrosine]
Difference [1, 3]: −0.01 | Cholesterol-free [1, 4]: 1.081 | Complete [1, 5]: 1.068 | Cholesterol-free media + simvastatin (0.04 μM) [2, 22]: 1.43 | Complete Media [2, 23]: 0.9975 | Difference [2, 12]: −0.43

CCc1cc2c(cc1N1CCC(N3CCOCC3)CC1)C(C)(C)c1[nH]c3cc(C#N)ccc3c1C2=O [Alectinib (Hydrochloride)]
Cholesterol-free [1, 4]: 0.7945 | Complete [1, 5]: 1.394 | Difference [1, 15]: 0.60 | Cholesterol-free media + simvastatin (0.04 μM) [2, 10]: 0.8676 | Complete Media [2, 11]: 0.6682 | Difference [2, 12]: −0.20

CN(CCN1CCC(OC(=O)Nc2ccccc2-c2ccccc2)CC1)C(=O)c1ccc(CN2CCC(C(N)=O)CC2)cc1 [Revefenacin]
Complete [1]: 0.9642 | Difference [1]: −0.65 | Cholesterol-free media + simvastatin (0.04 μM) [2]: 1.184 | Complete Media [2]: 1.038 | Difference [2]: −0.15

COC(=O)N[C@H](C(=O)N1CCC[C@H]1C(=O)Nc1ccc([C@@H]2CC[C@@H](c3ccc(NC(=O)[C@@H]4CCCN4C(=O)[C@@H](NC(=O)OC)C(C)C)cc3)N2c2ccc(C(C)(C)C)cc2)cc1)C(C)C [Ombitasvir]
Difference [1, 26]: −0.17 | Cholesterol-free [1, 24]: 1.001 | Complete [1, 14]: 0.8331 | Cholesterol-free media + simvastatin (0.04 μM) [2, 16]: 0.6017 | Complete Media [2, 17]: 0.5358 | Difference ([2]; complete media minus cholesterol-free media + simvastatin (0.04 μM), […]): −0.07

COc1ccc2c(c1)c(CC(=O)O)c(C)n2C(=O)c1ccc(Cl)cc1 [Indomethacin (sodium hydrate)]
Cholesterol-free [1, 9]: 1.164 | Complete ([1]; NCI-H292 cells, complete media): 0.8005 | Difference [1, 25]: −0.36 | Cholesterol-free media + simvastatin (0.04 μM) [2, 16]: 0.9744 | Complete Media [2, 17]: 0.911 | Difference [2, 18]: −0.06
